pIC50: −log10 of the molar value.
Key:
[1] = system: phosphodiesterase IV-b mRNA; experiment: Phosphodiesterase IV b mRNA in U937 cells (Taqman); assay type: cell-based, human; conditions: four hours of incubation; PGE 1×10^-6, 19-hydroxy PGE2 5×10^-6; without inhibitor
Procedure: After the incubation (20 hours), cells were pelleted and the mRNA was extracted with Tri-reagent (Sigma, Poole, UK). Total RNA was obtained by addition of chloroform and subsequent isopropanol precipitation. RNA was reverse transcribed with reverse transcriptase (Applied Biosystems) and random hexamers (Applied Biosystems). Probes and primers for IL-10 and IL-12 (p35) were designed using Primer Express (Applied Biosystems) and were as follows:
Template was amplified in a Taqman 7700 machine for 40 cycles using FAM/TAMRA dyes on the probe. The Applied Biosystems kit was used to amplify and detect ribosomal (18S)RNA (using VIC/TAMRA dyes) as an internal control in the same reaction tube. After 40 cycles the Ct (related to cycle number at which signal appears) for the FAM and the 18S (VIC) were recorded and […] relative quantitation was achieved using the formula 2^−ΔΔct where Δ refers to the difference between the FAM and VIC signal related to an standard comparator included in each run.
The mRNA for phosphodiesterase IV-b was measured as described in Example 2 above mRNA was extracted after four hours of incubation. The concentration of the PGE was 1×10^−6 and that of the 19-hydroxy PGE2 was 5×10^−6. The following primers and Taqman probe were used for quantitation of PDE IV b mRNA.

[2] = system: IL-10 release from U937 cells; experiment: IL-10 release from U937 cells (ELISA); assay type: cell-based, human; conditions: for stimulation of IL-10 in the presence of a type IV selective PDE inhibitor: with vs without type IV selective PDE inhibitor (rolipram)
Procedure: U 937 cells were grown in RPMI (PAA Laboratories) medium with 10% fetal calf serum added (PAA Laboratories). 2×10^6 cells per flask were treated with prostaglandin E2 at 10^−6 Molar or with Rolipram (4×10^−6) for 24 hours. Medium was removed at […] and analysed by ELISA. A capture antibody (Pharmingen) was coated onto 96 well plates and culture medium was added each well. A standard curve was created with recombinant IL-10 protein. After incubation and washing, a biotin labelled monoclonal antibody (Pharmingen) was added and following incubation and washing, peroxidase labelled streptavidin was added. After washing a tetramethyl benzidine substrate was added and colour developed in proportion to IL-10 in the original sample/standard. Colour was read using a plate photometer (Labsystems, Multiskan). Mean concentrations (N=3) in controls with no lipopolysaccharide (LPS) were 38.2 pg/ml and in the presence of LPS (100 nM) they were 43.9 […].
The effect of PGE1, PGE2, 19 hydroxy PGE1 and 19 hydroxy PGE2 on the stimulation of IL-10 in the presence and absence of rolipram was investigated as described above in Example 2. IL-10 levels were measured using an ELISA assay (R&D Ltd, Oxford). Measurements were taken in accordance with the manufacturer's instructions.

[3] = in vivo; cited from earlier work
[4] = system: type IV PDE; conditions: cited from earlier work; for pIC50: type IV PDE inhibitor

Compound | PDE activity (phosphodiesterase IV b mRNA) after prostaglandin application [1] | stimulation of IL-10 in the presence of a type IV selective PDE inhibitor [2] | pIC50 [4] | also measured
19-hydroxy PGE2 | increase | increased strikingly |  | concentration necessary to achieve similar effects to PGE ([2]; compared with PGE, Figures and Examples): higher concentration
CCCCC(C)(O)CC=C[C@H]1[C@H](O)CC(=O)[C@@H]1CCCCCCC(=O)OC (mixture of isomers) [misoprostol, (±) methyl 11α, 16-dihydroxy-16-methyl-9-oxoprost-13-enoate] |  |  |  | hypotension [3]: does not cause hypotension
CCCCC[C@H](O)/C=C/[C@H]1[C@H](O)CC(=O)[C@@H]1C/C=C\CCCC(=O)O [PGE, prostaglandin E2] | increase | increased strikingly |  | 
CCCCOc1cc(CC2CNC(=O)N2)ccc1OC (stereo not drawn) [Ro-20-1724, 4-[3-butoxy-4-methoxybenzyl]-2-imidazolidinone] |  |  | 5.70 | 
COc1ccc(C2CNC(=O)C2)cc1OC1CCCC1 (stereo not drawn) [rolipram, 4-[3-cyclopentyloxy 4-methoxyphenyl]-2-pyrrolidinone] |  |  | 6.10 | 
Cn1c(=O)c2[nH]cnc2n(C)c1=O [theophylline] |  |  |  | times less effective than rolipram ([4]; non-selective inhibitor compared with rolipram): 30 times
